According to article PMC5515859, “Metabolism of F18, a Derivative of Calanolide A, in Human Liver Microsomes and Cytosol” (Frontiers in Pharmacology, 2017):
Like-named read-outs stand apart in the source and are kept apart here.

Key:
CYP1A2 = details: cited from earlier work
rat liver microsomes = assay: Incubation of F18 with rat liver microsomes, metabolite profiling; type: in vitro ADME; design: key: +: Metabolite detected; −: metabolite not detected; details: F18 50 μM, 1 h
Experimental: (§1) A stock solution of F18 (5 mM) was prepared in methanol. F18 (50 μM) was incubated with RLMs/DLMs/MLMs/HLMs and HLcy (0.5 mg protein/mL) in 50 mM Tris-HCl buffer containing 5 mM MgCl2 (pH 7.4) in a final volume of 200 μL. The final concentration of methanol in the incubation system was 1% (v/v). After 3 min of preincubation at 37°C, the reactions were initiated by the addition of NADPH-regenerating system (10-mM β-NADP, 100-mM 6-G-P and 10-U/mL 6-G-P-DH) or NADH. After incubation for 1 h, the reactions were terminated by the addition of two volumes of ice-cold acetonitrile. Samples without NADPH or NADH were included as controls. The incubation mixture was vortexed and centrifuged at 13,300 × g for 5 min. A 10 μL aliquot of the supernatant was injected into an LC-tandem mass spectrometer (LC-MS/MS) for analysis.
(§2) Metabolic profiling studies were performed with a Finnigan TSQ Quantum MS instrument with an electrospray ionization probe and a Finnigan SURVEYOR HPLC system (Thermo Finnigan, San Jose, CA, USA). HPLC was performed with a Zorbax SB-C18 column (2.1 × 100 mm, 3.5 μm, Agilent Corporation, CA, USA) with a column temperature of 35°C and a flow rate of 200 μL/min. F18 and its metabolites were eluted using a linear gradient method with a mobile phase consisting of solvent A (water with 0.1% formic acid) and solvent B (acetonitrile with 0.1% formic acid). […] The samples were analyzed in the positive-ionization mode, and the TSQ capillary temperature was set to 350°C. Nitrogen was used as both the sheath gas and the auxiliary gas and was delivered at 30 psi and 15 psi, respectively. The spray voltage and tube lens were set to 3,800 V and 123 V, respectively. The full-width half maximum (FWHM) was set to 0.7. MS data were acquired in the selective ion-recording mode or by collecting full scans from 200 to 600 m/z at 1 scan/s. The mass spectrometer and HPLC system were operated using Xcalibur 2.0.7 software.

human liver microsomes = assay: Incubation of F18 with human liver microsomes, metabolite profiling by LC-MS/MS; type: in vitro ADME; design: key: +: Metabolite detected; −: metabolite not detected; details: F18 50 μM, 1 h
Experimental: as §1, §2

monkey liver microsomes = assay: Incubation of F18 with monkey liver microsomes, metabolite profiling; type: in vitro ADME; design: key: +: Metabolite detected; −: metabolite not detected; details: F18 50 μM, 1 h
Experimental: as §1, §2

human liver cytosol = assay: Incubation of F18 with human liver cytosol, metabolite profiling; type: in vitro ADME; design: key: +: Metabolite detected; −: metabolite not detected; details: F18 50 μM, 1 h
Experimental: as §1, §2

dog liver microsomes = assay: Incubation of F18 with dog liver microsomes, metabolite profiling; type: in vitro ADME, beagle dog; design: key: +: Metabolite detected; −: metabolite not detected; details: F18 50 μM, 1 h
Experimental: as §1, §2

CYP2A6 = details: cited from earlier work
CYP2C9 = details: cited from earlier work
CYP2D6 = details: cited from earlier work
VSV-G/HIV-1 viruses = assay: microbe, parasite or virus in culture; type: cell-based; details: Human immunodeficiency virus 1, HEK-293T, 48 h, read-out: IC50, inhibition of HIV-1 replication
[1] = tested on: carbonyl reductases in HLcy; assay: Inhibition of carbonyl reduction of F18 (formation of M3-1 and M3-2) by chemical inhibitors in HLcy; type: in vitro ADME, human; details: HLcy, cofactor not given, F18 10 μM, 10 min
Experimental: (§3) F18 (10 μM) was incubated with HLMs (0.5 mg/mL) and the NADPH-generating system for 30 min or with HLcy and a cofactor (NADPH or NADH) for 10 min in the presence of chemical inhibitors under the above-described conditions. Control incubations using the vehicles but not the chemical inhibitors were also performed. The formation of M3-1 and M3-2 was quantified by LC-MS/MS.
(§4) The amounts of F18, M1, M2-9, M3-1, M3-2, M5-2, M5-3, M5-4, and M5-5 in the incubations were simultaneously quantified with the LC-MS/MS system. […] The sheath gas, auxiliary gas, spray voltage and tube lens parameters were the same as those for the metabolic profiling studies.

CYP2C8 = tested on: CYP2C8; design: method as in FDA Drug Development and Drug Interactions; details: ref FDA Drug Development and Drug Interactions, cited from earlier work; for Ki: read-out: inhibitor Ki, CYP2C8
CYP2E1 = details: cited from earlier work
[2] = tested on: carbonyl reductases in HLM; assay: Inhibition of carbonyl reduction of F18 (formation of M3-1 and M3-2) by chemical inhibitors in HLM; type: in vitro ADME, human; details: NADPH, F18 10 μM, 30 min
Experimental: as §3, §4

CYP2B6 = details: cited from earlier work
[3] = read-out: inhibitor Ki, CYP2A6, ref FDA Drug Development and Drug Interactions
[4] = read-out: inhibitor Ki, CYP2C9, ref FDA Drug Development and Drug Interactions
[5] = high concentration: 18β-glycyrrhetinic acid 0.5 μM, 2-CEE 5 mM
[6] = low concentration: 18β-glycyrrhetinic acid 0.1 μM, 2-CEE 1 mM
[7] = read-out: inhibitor Ki, CYP2B6, ref FDA Drug Development and Drug Interactions

CCC(O)c1cc(=O)oc2c3c(c4c(c12)OC(C)(C)C=C4)OC(CCl)CC3=O (centres unmarked) [Metabolite M5-5]
F18 metabolite detected in RLM (rat liver microsomes): + | F18 metabolite detected in HLM (human liver microsomes): + | F18 metabolite detected in MLM (monkey liver microsomes): + | F18 metabolite detected in HLcy with NADH (human liver cytosol): − | F18 metabolite detected in HLcy with NADPH (human liver cytosol): − | F18 metabolite detected in DLM (dog liver microsomes): −

OC(Cn1cncn1)(Cn1cncn1)c1ccc(F)cc1F [Fluconazole]
Ki (CYP2C9; [4]): 7 µM

COc1ccc2c(c1)[C@]13CCCC[C@@H]1[C@H](C2)N(C)CC3 [dextromethorphan]
Km (CYP2D6): 0.44 to 8.5 µM

CC=Cc1cc(=O)oc2c3c(c4c(c12)OC(C)(C)C=C4)OC(CCl)CC3=O (centres unmarked) [Metabolite M2-9]
F18 metabolite detected in RLM (rat liver microsomes): + | F18 metabolite detected in HLM (human liver microsomes): + | F18 metabolite detected in MLM (monkey liver microsomes): − | F18 metabolite detected in HLcy with NADH (human liver cytosol): − | F18 metabolite detected in HLcy with NADPH (human liver cytosol): − | F18 metabolite detected in DLM (dog liver microsomes): − | IC50 (VSV-G/HIV-1 viruses): 0.11 µM

CCC(O)c1cc(=O)oc2c3c(c4c(c12)OC(C)(C)C=C4)OC(CCl)CC3=O (centres unmarked) [Metabolite M5-4]
F18 metabolite detected in RLM (rat liver microsomes): + | F18 metabolite detected in HLM (human liver microsomes): + | F18 metabolite detected in MLM (monkey liver microsomes): + | F18 metabolite detected in HLcy with NADH (human liver cytosol): − | F18 metabolite detected in HLcy with NADPH (human liver cytosol): − | F18 metabolite detected in DLM (dog liver microsomes): −

O=c1c(O)c(-c2ccc(O)c(O)c2)oc2cc(O)cc(O)c12 [Quercetin, quercetin]
Percentage of inhibition of the formation of M3-1, H ([1]; high concentration 50 μM): 80.4% | Percentage of inhibition of the formation of M3-2, H ([1]; high concentration 50 μM): 87.0% | Percentage of inhibition of the formation of M3-1, L ([1]; low concentration 10 μM): 41.5% | Percentage of inhibition of the formation of M3-2, L ([1]; low concentration 10 μM): 54.6% | Ki (CYP2C8): […]

C=CCSSCC=C [diallyldisulfide]
Ki (CYP2E1): 150 µM

COc1cc(Cc2cnc(N)nc2N)cc(OC)c1OC [Trimethoprim]
Ki (CYP2C8): 32 µM

CC1(C)[C@@H](O)CC[C@]2(C)[C@H]3C(=O)C=C4[C@@H]5C[C@@](C)(C(=O)O)CC[C@]5(C)CC[C@@]4(C)[C@]3(C)CC[C@@H]12 [18β-Glycyrrhetinic, 18β-glycyrrhetinic acid]
Percentage of inhibition of the formation of M3-1, H [2, 5]: 13.7% | Percentage of inhibition of the formation of M3-2, H [2, 5]: 67.5% | Percentage of inhibition of the formation of M3-1, L [2, 6]: 1.2% | Percentage of inhibition of the formation of M3-2, L [2, 6]: 51.4%

Cc1ncsc1CCCl [Clomethiazole]
Ki (CYP2E1): 12 µM

CC(=O)O[C@H]1C(=O)[C@@]2(C)[C@H]([C@H](OC(=O)c3ccccc3)[C@]3(O)C[C@H](OC(=O)[C@H](O)[C@@H](NC(=O)c4ccccc4)c4ccccc4)C(C)=C1C3(C)C)[C@]1(OC(C)=O)CO[C@@H]1C[C@@H]2O [Taxol]
Km (CYP2C8; Taxol 6-hydroxylation, N-DesethylAmodiaquine, read-out: substrate Km, CYP2C8): 5.4 to 19 µM

c1ccc(C2(N3CCCCC3)CCCCC2)cc1 [Phencyclidine]
Ki (CYP2B6; [7]): 10 µM

COC(=O)[C@H](c1ccccc1Cl)N1CCc2sccc2C1 [Clopidogrel]
Ki (CYP2B6): 0.5 µM

CCc1ccc(CCOc2ccc(CC3SC(=O)NC3=O)cc2)nc1 (centres unmarked) [pioglitazone]
Ki (CYP2C8): 1.7 µM

CCOc1ccc(NC(C)=O)cc1 [Phenacetin]
Km (CYP1A2; read-out: substrate Km, CYP1A2, metabolite Acetaminophen, ref FDA Drug Development and Drug Interactions): 1.7 to 152 µM

N[C@@H]1C[C@H]1c1ccccc1 (racemic) [Tranylcypromine, tranylcypromine]
Ki (CYP2A6): 0.02 to 0.2 µM

CC(NC(C)(C)C)C(=O)c1cccc(Cl)c1 (centres unmarked) [bupropion]
Km (CYP2B6; read-out: substrate Km, CYP2B6, bupropion-hydroxylation, ref FDA Drug Development and Drug Interactions): 67 to 168 µM

CC(O)Cc1cc(=O)oc2c3c(c4c(c12)OC(C)(C)C=C4)OC(CCl)CC3=O (centres unmarked) [Metabolite M5-2]
F18 metabolite detected in RLM (rat liver microsomes): + | F18 metabolite detected in HLM (human liver microsomes): + | F18 metabolite detected in MLM (monkey liver microsomes): + | F18 metabolite detected in HLcy with NADH (human liver cytosol): − | F18 metabolite detected in HLcy with NADPH (human liver cytosol): − | F18 metabolite detected in DLM (dog liver microsomes): +

CNCCC(Oc1ccc(C(F)(F)F)cc1)c1ccccc1 (centres unmarked) [fluoxetine]
Ki (CYP2C9; [4]): 18 to 41 µM

O=C(O)Cc1ccccc1Nc1c(Cl)cccc1Cl [Diclofenac]
Km (CYP2C9): 3.4 to 52 µM

NCCc1c[nH]c2ccccc12 [tr ypta mine]
Ki (CYP2A6; [3]): 1.7 µM

CC(O)Cc1cc(=O)oc2c3c(c4c(c12)OC(C)(C)C=C4)OC(CCl)CC3=O (centres unmarked) [Metabolite M5-3]
F18 metabolite detected in RLM (rat liver microsomes): + | F18 metabolite detected in HLM (human liver microsomes): + | F18 metabolite detected in MLM (monkey liver microsomes): + | F18 metabolite detected in HLcy with NADH (human liver cytosol): − | F18 metabolite detected in HLcy with NADPH (human liver cytosol): − | F18 metabolite detected in DLM (dog liver microsomes): +
